Source: ChEMBL document CHEMBL1131837, “Synthesis of new (benzimidazolyl)piperazines with affinity for the 5-HT1A receptor via Pd(0) amination of bromobenzimidazoles” (Bioorg Med Chem Lett, 1999)

Legend:
[1] = target: T1, 5-hydroxytryptamine receptor 1A (Rattus norvegicus, UniProt P19327); experiment: In vitro binding affinity towards 5-hydroxytryptamine 1A receptor was determined using [3H]8-OH-DPAT as radioligand in rat cerebral cortex membranes; […]; type: cell membranes
T1 sequence (P19327 whole entry): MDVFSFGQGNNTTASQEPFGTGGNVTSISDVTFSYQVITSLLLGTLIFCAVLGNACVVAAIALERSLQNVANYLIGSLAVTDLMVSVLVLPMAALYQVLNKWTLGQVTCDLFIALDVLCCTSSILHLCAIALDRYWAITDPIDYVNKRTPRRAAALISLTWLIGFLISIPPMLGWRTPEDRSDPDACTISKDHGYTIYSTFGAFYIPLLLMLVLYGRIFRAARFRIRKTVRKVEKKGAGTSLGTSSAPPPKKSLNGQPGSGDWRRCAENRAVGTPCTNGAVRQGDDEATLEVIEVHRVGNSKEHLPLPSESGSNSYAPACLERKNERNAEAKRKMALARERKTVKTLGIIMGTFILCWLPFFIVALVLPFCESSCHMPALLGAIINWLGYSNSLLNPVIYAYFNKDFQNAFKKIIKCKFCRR

[2] = target: T1, 5-hydroxytryptamine receptor 1A; experiment: In vitro binding affinity towards 5-hydroxytryptamine 1A receptor was determined using [3H]8-OH-DPAT as radioligand in rat cerebral cortex membranes; type: cell membranes, Membrane

Row | Ki [1] | Compound | Ki [2]
1 | Not Active | c1ccc(C(c2ccccc2)(c2ccccc2)n2cnc3c(N4CCNCC4)cccc32)cc1 | 
2 |  | O=C1C2CCCN2C(=O)N1CCCCN1CCN(c2cccc3[nH]cnc23)CC1 (centres undefined) | 1.21 nM
3 |  | CN1CCN(c2cccc3[nH]cnc23)CC1 | 4.72 nM
4 | Not Active | CN1CCN(c2cccc3c2ncn3C(c2ccccc2)(c2ccccc2)c2ccccc2)CC1 | 
